Experimental data published in US6087355A, “Cephalosporin antibiotics” (Microcide Pharmaceuticals, Inc., priority 1996, dated 2000).
Counter-ions that a name gives are not always drawn. Like-named read-outs stand apart in the source and are kept apart here.

Legend:
[1] = tested on: S. aureus 76(Meth^R)(lac^+); assay: In vitro MIC, agar dilution; assay type: cell-based; details: for MIC: Staphylococcus aureus, read-out: minimum inhibitory concentration (MIC)
Method in brief: (§1)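 Growth inhibition was scored after 16-20 h at 35-36 °C on Mueller-Hinton agar carrying serial two-fold drug concentrations (128 to ≤0.25 μg/mL). Inocula of ~10^4 cfu per spot came from 4-6 h broth cultures.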

S. aureus ATCC 29213 = assay: In vitro MIC, agar dilution; assay type: cell-based; details: for MIC: Staphylococcus aureus, ATCC29213, read-out: minimum inhibitory concentration (MIC)
Method in brief: as §1

[2] = tested on: S. aureus PC1(Meth^S)(lac^+); assay: In vitro MIC, agar dilution; assay type: cell-based; details: for MIC: Staphylococcus aureus, read-out: minimum inhibitory concentration (MIC)
Method in brief: as §1

[3] = tested on: S. aureus Spain #356(Meth^R); assay: In vitro MIC, agar dilution; assay type: cell-based; details: for MIC: Staphylococcus aureus, read-out: minimum inhibitory concentration (MIC)
Method in brief: as §1

E. faecium ATCC 35667 = assay: In vitro MIC, agar dilution; assay type: cell-based; details: for MIC: Enterococcus faecium, ATCC35667, read-out: minimum inhibitory concentration (MIC)
Method in brief: as §1

[4] = tested on: S. haemolyticus 05(Meth^R); assay: In vitro MIC, agar dilution; assay type: cell-based; details: for MIC: Staphylococcus haemolyticus, read-out: minimum inhibitory concentration (MIC)
Method in brief: as §1

E. faecium A491(Amp^R) = assay: In vitro MIC, agar dilution; assay type: cell-based; details: for MIC: Enterococcus faecium, read-out: minimum inhibitory concentration (MIC)
Method in brief: as §1

E. faecalis ATCC 29212 = assay: In vitro MIC, agar dilution; assay type: cell-based; details: for MIC: Enterococcus faecalis, ATCC29212, read-out: minimum inhibitory concentration (MIC)
Method in brief: as §1

E. coli ATCC 25992 = assay: In vitro MIC, agar dilution; assay type: cell-based; details: for MIC: Escherichia coli, ATCC25992, read-out: minimum inhibitory concentration (MIC)
Method in brief: as §1

P. aeruginosa ATCC 27853 = assay: In vitro MIC, agar dilution; assay type: cell-based; details: for MIC: Pseudomonas aeruginosa, ATCC27853, read-out: minimum inhibitory concentration (MIC)
Method in brief: as §1

[5] = tested on: S. aureus ATCC 33593(Meth^R); assay: In vitro MIC, agar dilution; assay type: cell-based; details: for MIC: Staphylococcus aureus, ATCC33593, read-out: minimum inhibitory concentration (MIC)
Method in brief: as §1

[6] = tested on: S. aureus ATCC 13709(Meth^S); assay: In vitro MIC, agar dilution; assay type: cell-based; details: for MIC: Staphylococcus aureus, ATCC13709, S. aureus ATCC 13709(Meth^S), read-out: minimum inhibitory concentration (MIC)
Method in brief: as §1

E. faecium VanA(Van^R) = assay: In vitro MIC, agar dilution; assay type: cell-based; details: for MIC: Enterococcus faecium, read-out: minimum inhibitory concentration (MIC)
Method in brief: as §1

E. faecalis VanB(Van^R) = assay: In vitro MIC, agar dilution; assay type: cell-based; details: for MIC: Enterococcus faecalis, read-out: minimum inhibitory concentration (MIC)
Method in brief: as §1

[7] = tested on: S. aureus Col8A(Meth^S)(lac^-); assay: In vitro MIC, agar dilution; assay type: cell-based; details: S. aureus Col8A(Meth^S)(lac^-); for MIC: Staphylococcus aureus, read-out: minimum inhibitory concentration (MIC)
Method in brief: (§2)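 Two-fold dilutions (128 to ≤0.25 μg/mL, in duplicate) were poured into Mueller-Hinton agar. Log-phase broth cultures were spot-inoculated at about 10^4 cfu per spot and incubated 35-36°C for 16-20 hours; the MIC was the lowest concentration inhibiting growth. Col is a high-level PBP2a producer; Col 8A is its isogenic PBP2a-lacking partner.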

[8] = tested on: S. aureus Col(Meth^R)(lac^-); assay: In vitro MIC, agar dilution; assay type: cell-based; details: for MIC: Staphylococcus aureus, read-out: minimum inhibitory concentration (MIC)
Method in brief: as §2

[9] = tested on: S. aureus strain ATCC 13709 (methicillin-susceptible); assay: Murine model for lethal bacteremic peritonitis; assay type: in vivo, female Swiss-Webster mice; parameters: ED50: unit: mg/kg; details: SC, 72 h; for responders at 0.3125 mg/kg / responders at 0.625 mg/kg / responders at 2.5 mg/kg / responders at 5 mg/kg: read-out: Survivors; for responders at 1.25 mg/kg: read-out: Survivors (converted); for ED50: two equal doses, IP challenge
Method in brief: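 Female Swiss-Webster mice were challenged IP with an LD100 inoculum in 7% hog gastric mucin, then given test drug subcutaneously in twofold increments (0.01–512 mg/kg) as two equal doses at challenge and 2 h later, 10 mice per group. Survival was scored at 72 h; PD50 (total mg/kg) was derived by probit.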

[10] = Staphylococcus aureus, ATCC13709, Dose 0.3125 mg/kg
[11] = Staphylococcus aureus, ATCC13709, Dose 0.625 mg/kg
[12] = Staphylococcus aureus, ATCC13709, Dose 1.25 mg/kg
[13] = Staphylococcus aureus, ATCC13709, Dose 2.5 mg/kg
[14] = Staphylococcus aureus, ATCC13709
[15] = Staphylococcus aureus, ATCC13709, read-out: ED50

For `NCCSc1cnccc1SC1=C(C(=O)O)N2C(=O)[C@@H](NC(=O)/C(=N\O)c3nc(N)sc3Cl)[C@H]2SC1` [Cmpd 30, (7R)-7-[(Z)-2-(2-amino-5-chlorothiazol-4-yl)-2-(hydroxyimino)acetamido]-3-(3-aminoethylthiopyrid-4-ylthio)-3-cephem-4-carboxylate, trifluoroacetic acid salt], the MIC [1] was 2 µg/mL, the MIC (S. aureus ATCC 29213) was 0.25 µg/mL and the MIC [2] was at most 0.25 µg/mL. For the same compound, the MIC [3] was 1 µg/mL, the MIC (E. faecium ATCC 35667) was 0.5 µg/mL and the MIC [4] was 1 µg/mL. The MIC (E. faecium A491(Amp^R)) was 8 µg/mL, the MIC (E. faecalis ATCC 29212) was at most 0.06 µg/mL and the MIC (E. coli ATCC 25992) was 8 µg/mL. The MIC (P. aeruginosa ATCC 27853) was over 32 µg/mL, the MIC [5] was 1 µg/mL and the MIC [6] was at most 0.25 µg/mL. It also gave an MIC (E. faecium VanA(Van^R)) of 1 µg/mL, an MIC (E. faecalis VanB(Van^R)) of at most 0.06 µg/mL and an MIC [7] of 0.13 µg/mL. For the same compound, the MIC [8] was 0.5 µg/mL, the responders at 0.3125 mg/kg [9, 10] was 0% and the responders at 0.625 mg/kg [9, 11] was 20%. For the same compound, the responders at 1.25 mg/kg [9, 12] was 40%, the responders at 2.5 mg/kg [9, 13] was 100% and the responders at 5 mg/kg [9, 14] was 100%. It also gave an ED50 [9, 15] of 1.14 mg/kg.

In the case of “(7R)-7-[(Z)-2-(aminothiazol-4-yl)-2-(hydroxyimino)acetamido]-3-[(methylaminoethylaminoethylthiomethyl)-1,2,3-thiadiazol-5-ylthio]-3-cephem-4-carboxylate, trifluoroacetic acid salt [Cmpd 11]”, the “minimum inhibitory concentration (MIC)” value [1] is reported as 8 µg/mL, the “minimum inhibitory concentration (MIC)” value (S. aureus ATCC 29213) is reported as 0.5 µg/mL and the “minimum inhibitory concentration (MIC)” value [2] is reported as 1 µg/mL. The “minimum inhibitory concentration (MIC)” value [3] was 8 µg/mL, the “minimum inhibitory concentration (MIC)” value (E. faecium ATCC 35667) was 2 µg/mL and the “minimum inhibitory concentration (MIC)” value [4] was 4 µg/mL. The “minimum inhibitory concentration (MIC)” value (E. faecium A491(Amp^R)) was over 32 µg/mL, the “minimum inhibitory concentration (MIC)” value (E. faecalis ATCC 29212) was 0.25 µg/mL and the “minimum inhibitory concentration (MIC)” value (E. coli ATCC 25992) was 8 µg/mL. For the same compound, the “minimum inhibitory concentration (MIC)” value (P. aeruginosa ATCC 27853) was over 32 µg/mL, the “minimum inhibitory concentration (MIC)” value [5] was 4 µg/mL and the “minimum inhibitory concentration (MIC)” value ([6]; S. aureus ATCC 13709(Meth^S)) was 0.5 µg/mL. For the same compound, the “minimum inhibitory concentration (MIC)” value (E. faecium VanA(Van^R)) was 4 µg/mL, the “minimum inhibitory concentration (MIC)” value (E. faecalis VanB(Van^R)) was 0.5 µg/mL and the “minimum inhibitory concentration (MIC)” value [7] was 1 µg/mL. For the same compound, the “minimum inhibitory concentration (MIC)” value [8] was 4 µg/mL, the Survivors ([9]; Dose 0.156 mg/kg) was 1/10 and the Survivors ([9]; Dose 0.3125 mg/kg) was 1/10. The Survivors ([9]; Dose 0.625 mg/kg) was 3/10, the Survivors ([9]; Dose 1.25 mg/kg) was 5/10 and the Survivors ([9]; Dose 2.5 mg/kg) was 6/10. For the same compound, the ED50 [9] was 0.96 mg/kg.

For `NCC(O)CSCc1cnccc1SC1=C(C(=O)O)N2C(=O)[C@@H](NC(=O)/C(=N\O)c3nc(N)sc3Cl)[C@H]2SC1` (stereo partly drawn) [Cmpd 32, (7R)-7-[(Z)-2-(2-amino-5-chlorothiazol-4-yl)-2-(hydroxyimino)acetamido]-3-[3-(3-amino-2-hydroxyprop-1-ylthiomethyl)pyrid-4-ylthio]-3-cephem-4-carboxylate, trifluoroacetic acid salt], the MIC [1] was 2 µg/mL, the MIC (S. aureus ATCC 29213) was 0.25 µg/mL and the MIC [2] was 0.5 µg/mL. The MIC [3] was 2 µg/mL, the MIC (E. faecium ATCC 35667) was 0.5 µg/mL and the MIC [4] was 4 µg/mL. The MIC (E. faecium A491(Amp^R)) was 8 µg/mL, the MIC (E. faecalis ATCC 29212) was at most 0.06 µg/mL and the MIC (E. coli ATCC 25992) was 8 µg/mL. It also gave an MIC (P. aeruginosa ATCC 27853) of over 32 µg/mL, an MIC [5] of 2 µg/mL and an MIC [6] of 0.13 µg/mL. It also gave an MIC (E. faecium VanA(Van^R)) of 1 µg/mL, an MIC (E. faecalis VanB(Van^R)) of 0.13 µg/mL and an MIC [7] of 0.25 µg/mL. For the same compound, the MIC [8] was 1 µg/mL, the responders at 0.3125 mg/kg [9, 10] was 0% and the responders at 0.625 mg/kg [9, 11] was 10%. The responders at 1.25 mg/kg [9, 12] was 50%, the responders at 2.5 mg/kg [9, 13] was 50% and the responders at 5 mg/kg [9, 14] was 80%. The ED50 [9, 15] was 2 mg/kg.
